In the supplement of paper PMC10307832:

Columns and labels:
Assay in all cases: relative viability (nuclei count vs DMSO), 5 days (fraction); higher = more cells survive
NCI-H1666 = system: NCI-H1666
In short: (§1)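 Relative viability divides the nuclei count in treated wells by that in vehicle wells. Lung cancer cell lines were seeded in 1536-well plates, dosed by pin tool the next day, and fixed and stained after 5 days in one step with final 0.05% Triton X-100, 1% formaldehyde and 1 ug/ml Hoechst. Dosing was a single drug or a fixed anchor-drug dose plus five library-drug doses (not always all listed) in √10 steps, and values are medians of duplicate plates imaged at 4×.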

NCI-H2347 = system: NCI-H2347
In short: as §1

NCI-H650 = system: NCI-H650
In short: as §1

NCI-H661 = system: NCI-H661
In short: as §1

LCLC-97TM1 = system: LCLC-97TM1
In short: as §1

HCC-827 = system: HCC-827
In short: as §1

COR-L 105 = system: COR-L 105
In short: as §1

201T = system: 201T
In short: as §1

NCI-H2126 = system: NCI-H2126
In short: as §1

NCI-H2087 = system: NCI-H2087
In short: as §1

NCI-H520 = system: NCI-H520
In short: as §1

ChaGo-K-1 = system: ChaGo-K-1
In short: as §1

LC-2-ad = system: LC-2-ad
In short: as §1

H3255 = system: H3255
In short: as §1

NCI-H2405 = system: NCI-H2405
In short: as §1

PC-14 = system: PC-14
In short: as §1

NCI-H647 = system: NCI-H647
In short: as §1

EPLC-272H = system: EPLC-272H
In short: as §1

NCI-H23 = system: NCI-H23
In short: as §1

RERF-LC-KJ = system: RERF-LC-KJ
In short: as §1

HCC-78 = system: HCC-78
In short: as §1

NCI-H1915 = system: NCI-H1915
In short: as §1

**Q.** What does the source list for `Nc1ccn([C@@H]2O[C@H](CO)[C@@H](O)[C@@H]2O)c(=O)n1` [Cytarabine] + Nc1ncn([C@H]2C[C@H](O)[C@@H](CO)O2)c(=O)n1 [Decitabine] (partner 2 µM)?
**A.** relative viability (NCI-H1666; first compound 0.005 µM): 0.73; relative viability (NCI-H1666; first compound 0.01581 µM): 0.633; relative viability (NCI-H1666; first compound 0.05 µM): 0.543; relative viability (NCI-H1666; first compound 0.1581 µM): 0.523; relative viability (NCI-H1666; first compound 0.5 µM): 0.455; relative viability (NCI-H2347; first compound 0.005 µM): 0.61; relative viability (NCI-H2347; first compound 0.01581 µM): 0.56; relative viability (NCI-H2347; first compound 0.05 µM): 0.507; relative viability (NCI-H2347; first compound 0.1581 µM): 0.537; relative viability (NCI-H2347; first compound 0.5 µM): 0.573; relative viability (NCI-H650; first compound 0.005 µM): 0.326; relative viability (NCI-H650; first compound 0.01581 µM): 0.255; relative viability (NCI-H650; first compound 0.05 µM): 0.247; relative viability (NCI-H650; first compound 0.1581 µM): 0.152; relative viability (NCI-H650; first compound 0.5 µM): 0.152; relative viability (NCI-H661; first compound 0.005 µM): 0.556; relative viability (NCI-H661; first compound 0.01581 µM): 0.509; relative viability (NCI-H661; first compound 0.05 µM): 0.519; relative viability (NCI-H661; first compound 0.1581 µM): 0.422; relative viability (NCI-H661; first compound 0.5 µM): 0.295; relative viability (LCLC-97TM1; first compound 0.005 µM): 0.205; relative viability (LCLC-97TM1; first compound 0.01581 µM): 0.164; relative viability (LCLC-97TM1; first compound 0.05 µM): 0.211; relative viability (LCLC-97TM1; first compound 0.1581 µM): 0.127; relative viability (LCLC-97TM1; first compound 0.5 µM): 0.111; relative viability (HCC-827; first compound 0.005 µM): 0.232; relative viability (HCC-827; first compound 0.01581 µM): 0.239; relative viability (HCC-827; first compound 0.05 µM): 0.182; relative viability (HCC-827; first compound 0.1581 µM): 0.152; relative viability (HCC-827; first compound 0.5 µM): 0.167; relative viability (COR-L 105; first compound 0.005 µM): 0.623; relative viability (COR-L 105; first compound 0.01581 µM): 0.642; relative viability (COR-L 105; first compound 0.05 µM): 0.426; relative viability (COR-L 105; first compound 0.1581 µM): 0.398; relative viability (COR-L 105; first compound 0.5 µM): 0.303; relative viability (201T; first compound 0.005 µM): 0.847; relative viability (201T; first compound 0.01581 µM): 0.853; relative viability (201T; first compound 0.05 µM): 0.802; relative viability (201T; first compound 0.1581 µM): 0.72; relative viability (201T; first compound 0.5 µM): 0.668; relative viability (NCI-H2126; first compound 0.005 µM): 0.597; relative viability (NCI-H2126; first compound 0.01581 µM): 0.518; relative viability (NCI-H2126; first compound 0.05 µM): 0.514; relative viability (NCI-H2126; first compound 0.1581 µM): 0.457; relative viability (NCI-H2126; first compound 0.5 µM): 0.429; relative viability (NCI-H2087; first compound 0.005 µM): 0.316; relative viability (NCI-H2087; first compound 0.01581 µM): 0.225; relative viability (NCI-H2087; first compound 0.05 µM): 0.303; relative viability (NCI-H2087; first compound 0.1581 µM): 0.109; relative viability (NCI-H2087; first compound 0.5 µM): 0.133; relative viability (NCI-H520; first compound 0.005 µM): 0.48; relative viability (NCI-H520; first compound 0.01581 µM): 0.564; relative viability (NCI-H520; first compound 0.05 µM): 0.53; relative viability (NCI-H520; first compound 0.1581 µM): 0.343; relative viability (NCI-H520; first compound 0.5 µM): 0.349; relative viability (ChaGo-K-1; first compound 0.005 µM): 0.475; relative viability (ChaGo-K-1; first compound 0.01581 µM): 0.413; relative viability (ChaGo-K-1; first compound 0.05 µM): 0.339; relative viability (ChaGo-K-1; first compound 0.1581 µM): 0.252; relative viability (ChaGo-K-1; first compound 0.5 µM): 0.225; relative viability (LC-2-ad; first compound 0.005 µM): 0.727; relative viability (LC-2-ad; first compound 0.01581 µM): 0.682; relative viability (LC-2-ad; first compound 0.05 µM): 0.759; relative viability (LC-2-ad; first compound 0.1581 µM): 0.69; relative viability (LC-2-ad; first compound 0.5 µM): 0.499; relative viability (H3255; first compound 0.005 µM): 0.732; relative viability (H3255; first compound 0.01581 µM): 0.555; relative viability (H3255; first compound 0.05 µM): 0.637; relative viability (H3255; first compound 0.1581 µM): 0.588; relative viability (H3255; first compound 0.5 µM): 0.375; relative viability (NCI-H2405; first compound 0.005 µM): 0.666; relative viability (NCI-H2405; first compound 0.01581 µM): 0.569; relative viability (NCI-H2405; first compound 0.05 µM): 0.503; relative viability (NCI-H2405; first compound 0.1581 µM): 0.342; relative viability (NCI-H2405; first compound 0.5 µM): 0.321; relative viability (PC-14; first compound 0.005 µM): 0.161; relative viability (PC-14; first compound 0.01581 µM): 0.0896; relative viability (PC-14; first compound 0.05 µM): 0.114; relative viability (PC-14; first compound 0.1581 µM): 0.0408; relative viability (PC-14; first compound 0.5 µM): 0.0434; relative viability (NCI-H647; first compound 0.005 µM): 0.307; relative viability (NCI-H647; first compound 0.01581 µM): 0.239; relative viability (NCI-H647; first compound 0.05 µM): 0.258; relative viability (NCI-H647; first compound 0.1581 µM): 0.108; relative viability (NCI-H647; first compound 0.5 µM): 0.0719; relative viability (EPLC-272H; first compound 0.005 µM): 0.403; relative viability (EPLC-272H; first compound 0.01581 µM): 0.358; relative viability (EPLC-272H; first compound 0.05 µM): 0.346; relative viability (EPLC-272H; first compound 0.1581 µM): 0.224; relative viability (EPLC-272H; first compound 0.5 µM): 0.247; relative viability (NCI-H23; first compound 0.005 µM): 0.296; relative viability (NCI-H23; first compound 0.01581 µM): 0.267; relative viability (NCI-H23; first compound 0.05 µM): 0.274; relative viability (NCI-H23; first compound 0.1581 µM): 0.195; relative viability (NCI-H23; first compound 0.5 µM): 0.193; relative viability (RERF-LC-KJ; first compound 0.005 µM): 0.677; relative viability (RERF-LC-KJ; first compound 0.01581 µM): 0.568; relative viability (RERF-LC-KJ; first compound 0.05 µM): 0.475; relative viability (RERF-LC-KJ; first compound 0.1581 µM): 0.342; relative viability (RERF-LC-KJ; first compound 0.5 µM): 0.29; relative viability (HCC-78; first compound 0.005 µM): 0.715; relative viability (HCC-78; first compound 0.01581 µM): 0.668; relative viability (HCC-78; first compound 0.05 µM): 0.587; relative viability (HCC-78; first compound 0.1581 µM): 0.492; relative viability (HCC-78; first compound 0.5 µM): 0.44; relative viability (NCI-H1915; first compound 0.005 µM): 0.248; relative viability (NCI-H1915; first compound 0.01581 µM): 0.289; relative viability (NCI-H1915; first compound 0.05 µM): 0.269; relative viability (NCI-H1915; first compound 0.1581 µM): 0.231; relative viability (NCI-H1915; first compound 0.5 µM): 0.227
